According to patent US20020052354A1, “Paramagnetic DOTA derivatives, pharmaceutical agents that contain the latter, process for their production, and their use for MR imaging of necrosis and infarction” (Schering AG, priority 2000, published 2002):

What was measured:
[1] = Determination of relaxivity R1 and R2 (Minispec PC 20); assay type: physicochemical; details: bovine plasma; 40° C.; 0.47 tesla; n = 3
Method: Determination of Relaxivity R1 [Lmmol^−1 s^−1] and R2 [Lmmol^−1 s^−1]
Measurement at 40° C.; 0.47 tesla
T1-sequence 180°-TI-90°, inversion recovery

infarction areas = details: Circulation, Vol. 90, No. 4, 1994; cited from earlier work
[2] = in vivo; cited from earlier work

Substance | Relaxivity R1 [1] | Relaxivity R2 [1] | visualization of infarction areas (infarction areas) | deposition in the skin (photosensitization and discoloration) [2]
Gd-mesoporphyrin [1c, DE 4232925] | 15.3 ± 0.3 Lmmol^−1 s^−1 | 16.3 ± 0.2 Lmmol^−1 s^−1 | readily visualize infarction areas | tend to be deposited in the skin
Mn-tetraphenyl-porphyrin [Mn-TTP] |  |  | readily visualize infarction areas | 
N,N-Bis[1,4,7-tris(carboxylatomethyl)-1,4,7,10-tetraazacyclododecane-Gd-complex-10-(3-aza-4-oxo-hexan-5-ylic)-acid]-4,4′-methylene-N′,N′-bis[(3-methoxy)-2-naphtoic acid]-tetrahydrazide [Example 4] | 17.0 ± 0.1 Lmmol^−1 s^−1 | 20.2 ± 0.6 Lmmol^−1 s^−1 |  | 
N-(1,4,7,-Tris(carboxylatomethyl)-1,4,7,10-tetraazacyclododecane-Gd-complex-10-[1-carboxylate-1-[3-oxapropionic acid)-phenyl]-methyl-N′-[3-(methoxy),2-naphthoic acid]-dihydrazide, sodium salt [Example 11] | 22.8 ± 0.8 Lmmol^−1 s^−1 | 29.2 ± 1.1 Lmmol^−1 s^−1 |  | 
